Assay results taken from paper PMC10257182, “Discovery of senolytics using machine learning” (Nature Communications, 2023).
Read-outs that look alike come from different tables or passages of the source.

Legend:
Assay type in all cases: cell-based, human
[1] = system: non-senescent control A549 cells; test: Nuclei count senolytic assay, TIS model, non-senescent control cells; settings: Homo sapiens, A549, Control cells, mean, read-out: Mean % Cell Survival; for viability at 10 µM: log (dose) [M] -5; for viability at 4.68 µM: log (dose) [M] -5.33; for viability at 2.19 µM: log (dose) [M] -5.66; for viability at 1 µM: log (dose) [M] -6; for viability at 0.468 µM: log (dose) [M] -6.33; for viability at 0.219 µM: log (dose) [M] -6.66; for viability at 0.1 µM: log (dose) [M] -7; for viability at 0.0468 µM: log (dose) [M] -7.33; for viability at 0.0219 µM: log (dose) [M] -7.66; for viability at 0.01 µM: log (dose) [M] -8
Outline: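 Nuclei counted by Hoechst 33342 imaging after fixation, following 72 h treatment with compound at 10 nM–10 μM (10-point […], triplicates). Targets were control A549 cells and A549 rendered senescent by 48 h 100 μM etoposide plus 3 days recovery.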

[2] = system: non-senescent control IMR90 ER:RAS cells; test: Nuclei count (Hoechst, high content imaging) senolytic assay, OIS model, non-senescent control cells; settings: Homo sapiens; for viability at 4.677 µM: log (dose) [M] -5.33, 72 h; for viability at 2.188 µM: log (dose) [M] -5.66, 72 h; for viability at 1 µM: log (dose) [M] -6, 72 h; for viability at 2.19 µM: log (dose) [M] -5.66
Outline: (§1)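 Senolytic read-out as total nuclei per well by automated Hoechst imaging after 72 h compound exposure (10 μM to 10 nM, 10-point […], triplicate), relative to untreated controls. Paired cultures: IMR90 ER:RAS kept non-senescent or made senescent with 100 nM final 4-OHT; ouabain served as positive control.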

[3] = system: senescent IMR90 ER:RAS cells (4-OHT-induced); test: Nuclei count (Hoechst, high content imaging) senolytic assay, oncogene-induced senescence (OIS) model, senescent cells; settings: Homo sapiens; for viability at 1 µM: log (dose) [M] -6, 72 h; for viability at 0.4677 µM: log (dose) [M] -6.33, 72 h
Outline: as §1

[4] = IMR-90, 72 h, Control, log (dose) [M] -5, 72 h, mean n=3 (Fig 3C), read-out: Mean % Cell Survival
[5] = IMR-90, 72 h, Control, mean n=3 (Fig 3C), read-out: Mean % Cell Survival
[6] = IMR-90, 72 h, Control, log (dose) [M] -6.33, 72 h, mean n=3 (Fig 3C), read-out: Mean % Cell Survival
[7] = IMR-90, 72 h, Control, log (dose) [M] -6.66, 72 h, mean n=3 (Fig 3C), read-out: Mean % Cell Survival
[8] = IMR-90, 72 h, Control, log (dose) [M] -7, 72 h, mean n=3 (Fig 3C), read-out: Mean % Cell Survival
[9] = IMR-90, 72 h, Control, log (dose) [M] -7.33, 72 h, mean n=3 (Fig 3C), read-out: Mean % Cell Survival
[10] = IMR-90, 72 h, Control, log (dose) [M] -7.66, 72 h, mean n=3 (Fig 3C), read-out: Mean % Cell Survival
[11] = IMR-90, 72 h, Control, log (dose) [M] -8, 72 h, mean n=3 (Fig 3C), read-out: Mean % Cell Survival
[12] = IMR-90, Control, read-out: % Cell Survival
[13] = IMR-90, 72 h, Senescent, log (dose) [M] -5, 72 h, mean n=3 (Fig 3C), read-out: Mean % Cell Survival
[14] = IMR-90, 72 h, Senescent, log (dose) [M] -5.33, 72 h, mean n=3 (Fig 3C), read-out: Mean % Cell Survival
[15] = IMR-90, 72 h, Senescent, log (dose) [M] -5.66, 72 h, mean n=3 (Fig 3C), read-out: Mean % Cell Survival
[16] = IMR-90, 72 h, Senescent, mean n=3 (Fig 3C), read-out: Mean % Cell Survival
[17] = IMR-90, 72 h, Senescent, log (dose) [M] -6.66, 72 h, mean n=3 (Fig 3C), read-out: Mean % Cell Survival
[18] = IMR-90, 72 h, Senescent, log (dose) [M] -7, 72 h, mean n=3 (Fig 3C), read-out: Mean % Cell Survival
[19] = IMR-90, 72 h, Senescent, log (dose) [M] -7.33, 72 h, mean n=3 (Fig 3C), read-out: Mean % Cell Survival
[20] = IMR-90, 72 h, Senescent, log (dose) [M] -7.66, 72 h, mean n=3 (Fig 3C), read-out: Mean % Cell Survival
[21] = IMR-90, 72 h, Senescent, log (dose) [M] -8, 72 h, mean n=3 (Fig 3C), read-out: Mean % Cell Survival
[22] = IMR-90, Senescent cells, log (dose) [M] -7.66, individual replicates, SUP FIG 4C, read-out: % Cell Survival

CO[C@H]1C[C@@H]2CC[C@@H](C)[C@@](O)(O2)C(=O)C(=O)N2CCCC[C@H]2C(=O)O[C@H]([C@H](C)C[C@@H]2CC[C@@H](O)[C@H](OC)C2)CC(=O)[C@H](C)/C=C(\C)[C@@H](O)[C@@H](OC)C(=O)[C@H](C)C[C@H](C)/C=C/C=C/C=C/1C [Rapamycin, rapamycin, reference compound] showed a viability at 10 µM [1] of 74.6%, a viability at 4.68 µM [1] of 60.2% and a viability at 2.19 µM [1] of 54%. The viability at 1 µM [1] was 104%, the viability at 0.468 µM [1] was 117% and the viability at 0.219 µM [1] was 122%. For the same compound, the viability at 0.1 µM [1] was 128%, the viability at 0.0468 µM [1] was 102% and the viability at 0.0219 µM [1] was 117%. It also gave a viability at 0.01 µM [1] of 116%, a viability at 10 µM [2, 4] of 98.8% and a viability at 4.677 µM [2, 5] of 100%. For the same compound, the viability at 2.188 µM [2, 5] was 89.2%, the viability at 1 µM [2, 5] was 83.1% and the viability at 0.4677 µM [2, 6] was 85.7%. It also gave a viability at 0.2188 µM [2, 7] of 86.6%, a viability at 0.1 µM [2, 8] of 92.6% and a viability at 0.04677 µM [2, 9] of 86.3%. For the same compound, the viability at 0.02188 µM [2, 10] was 95.8%, the viability at 0.01 µM [2, 11] was 100% and the viability at 10 µM ([2]; IMR-90, Control cells, log (dose) [M] -5, individual replicates, SUP FIG 4C, read-out: % Cell Survival) was 91.9%. It also gave a viability at 0.4677 µM ([2]; IMR-90, Control cells, log (dose) [M] -6.33, individual replicates, SUP FIG 4C, read-out: % Cell Survival) of 77.2%, a viability at 0.2188 µM ([2]; IMR-90, Control cells, log (dose) [M] -6.66, individual replicates, SUP FIG 4C, read-out: % Cell Survival) of 83% and a viability at 0.1 µM ([2]; IMR-90, Control cells, log (dose) [M] -7, individual replicates, SUP FIG 4C, read-out: % Cell Survival) of 91%. It also gave a viability at 0.04677 µM ([2]; IMR-90, Control cells, log (dose) [M] -7.33, individual replicates, SUP FIG 4C, read-out: % Cell Survival) of 89.7%, a viability at 0.02188 µM ([2]; IMR-90, Control cells, log (dose) [M] -7.66, individual replicates, SUP FIG 4C, read-out: % Cell Survival) of 93% and a viability at 0.01 µM ([2]; IMR-90, Control cells, log (dose) [M] -8, individual replicates, SUP FIG 4C, read-out: % Cell Survival) of 109%. The viability at 2.19 µM [2, 12] was 80.5%, the viability at 10 µM [3, 13] was 98.4% and the viability at 4.677 µM [3, 14] was 103%. It also gave a viability at 2.188 µM [3, 15] of 114%, a viability at 1 µM [3, 16] of 90.6% and a viability at 0.4677 µM [3, 16] of 101%. The viability at 0.2188 µM [3, 17] was 97.8%, the viability at 0.1 µM [3, 18] was 92.6% and the viability at 0.04677 µM [3, 19] was 105%. The viability at 0.02188 µM [3, 20] was 93.9%, the viability at 0.01 µM [3, 21] was 92% and the viability at 10 µM ([3]; IMR-90, Senescent cells, log (dose) [M] -5, individual replicates, SUP FIG 4C, read-out: % Cell Survival) was 94.1%. The viability at 4.677 µM ([3]; IMR-90, Senescent cells, log (dose) [M] -5.33, individual replicates, SUP FIG 4C, read-out: % Cell Survival) was 113%, the viability at 0.2188 µM ([3]; IMR-90, Senescent cells, log (dose) [M] -6.66, individual replicates, SUP FIG 4C, read-out: % Cell Survival) was 104% and the viability at 0.1 µM ([3]; IMR-90, Senescent cells, log (dose) [M] -7, individual replicates, SUP FIG 4C, read-out: % Cell Survival) was 95.9%. It also gave a viability at 0.04677 µM ([3]; IMR-90, Senescent cells, log (dose) [M] -7.33, individual replicates, SUP FIG 4C, read-out: % Cell Survival) of 107%, a viability at 0.02188 µM [3, 22] of 102% and a viability at 0.01 µM ([3]; IMR-90, Senescent cells, log (dose) [M] -8, individual replicates, SUP FIG 4C, read-out: % Cell Survival) of 88.4%.

CO[C@H]1C[C@@H]2CC[C@@H](C)[C@@](O)(O2)C(=O)C(=O)N2CCCC[C@H]2C(=O)O[C@H]([C@H](C)C[C@@H]2CC[C@@H](OP(C)(C)=O)[C@H](OC)C2)CC(=O)[C@H](C)/C=C(\C)[C@@H](O)[C@@H](OC)C(=O)[C@H](C)C[C@H](C)/C=C/C=C/C=C/1C [Ridaforolimus, ridaforolimus, reference compound] was tested, and the viability at 10 µM [1] was 110%, the viability at 4.68 µM [1] was 121% and the viability at 2.19 µM [1] was 69%. It also gave a viability at 1 µM [1] of 65.1%, a viability at 0.468 µM [1] of 96% and a viability at 0.219 µM [1] of 102%. For the same compound, the viability at 0.1 µM [1] was 97.4%, the viability at 0.0468 µM [1] was 108% and the viability at 0.0219 µM [1] was 74.4%. The viability at 0.01 µM [1] was 107%, the viability at 10 µM [2, 4] was 75.2% and the viability at 4.677 µM [2, 5] was 82.6%. The viability at 2.188 µM [2, 5] was 82.3%, the viability at 1 µM [2, 5] was 77.9% and the viability at 0.4677 µM [2, 6] was 87.6%. The viability at 0.2188 µM [2, 7] was 91.5%, the viability at 0.1 µM [2, 8] was 77.4% and the viability at 0.04677 µM [2, 9] was 106%. For the same compound, the viability at 0.02188 µM [2, 10] was 88.9%, the viability at 0.01 µM [2, 11] was 92.5% and the viability at 10 µM ([2]; IMR-90, Control, log (dose) [M] -5, read-out: % Cell Survival) was 119%. The viability at 2.19 µM [2, 12] was 107%, the viability at 0.468 µM ([2]; IMR-90, Control, log (dose) [M] -6.33, read-out: % Cell Survival) was 105% and the viability at 0.219 µM ([2]; IMR-90, Control, log (dose) [M] -6.66, read-out: % Cell Survival) was 109%. For the same compound, the viability at 0.1 µM ([2]; IMR-90, Control, log (dose) [M] -7, read-out: % Cell Survival) was 97%, the viability at 0.04677 µM ([2]; IMR-90, Control, log (dose) [M] -7.33, read-out: % Cell Survival) was 115% and the viability at 0.0219 µM ([2]; IMR-90, Control, log (dose) [M] -7.66, read-out: % Cell Survival) was 113%. For the same compound, the viability at 0.01 µM ([2]; IMR-90, Control, log (dose) [M] -8, read-out: % Cell Survival) was 113%, the viability at 10 µM [3, 13] was 122% and the viability at 4.677 µM [3, 14] was 144%. It also gave a viability at 2.188 µM [3, 15] of 164%, a viability at 1 µM [3, 16] of 156% and a viability at 0.4677 µM [3, 16] of 160%. For the same compound, the viability at 0.2188 µM [3, 17] was 156%, the viability at 0.1 µM [3, 18] was 126% and the viability at 0.04677 µM [3, 19] was 128%. For the same compound, the viability at 0.02188 µM [3, 20] was 131%, the viability at 0.01 µM [3, 21] was 105% and the viability at 2.188 µM ([3]; IMR-90, Senescent cells, log (dose) [M] -5.66, individual replicates, SUP FIG 4C, read-out: % Cell Survival) was 166%. The viability at 0.02188 µM [3, 22] was 129%, the viability at 0.02188 µM ([3]; IMR-90, Senescent, log (dose) [M] -7.66, read-out: % Cell Survival) was 81.7% and the viability at 0.01 µM ([3]; IMR-90, Senescent, log (dose) [M] -8, read-out: % Cell Survival) was 78.7%.
